# Patent publication US20140206992A1, “METHOD FOR DIAGNOSING CANCER” (THE UNIVERSITY OF TOKYO, priority 2010, published 2014)
# Columns and labels:
# [1] = test system: γ-glutamyltranspeptidase (GGT, equine kidney); test: Enzymatic reaction of the fluorescent probe with γ-glutamyltranspeptidase (GGT); assay type: biochemical; settings: 5 μM compound, excitation 501 nm
# Description: Compound (2) (γGlu-RhoHM) formed by binding the acyl residue derived from glutamic acid to one amino group of Compound (1) (RhoHM) was dissolved in a neutral phosphate buffer, and γ-glutamyltranspeptidase (GGT, equine kidney, SIGMA G9270-100UN) was reacted with the solution. Specifically, 3 μL of a […] of the compound in dimethyl sulfoxide (DMSO) was dissolved at a final concentration of 5 μM in 3 mL of a 0.1 M sodium phosphate buffer (pH 7.4), and GGT (1.1 U) was added for the enzymatic reaction at 37° C. The excitation wavelength was 501 nm.
# The DMSO solution of the compound (5 mM) in a volume of 3 μL was dissolved in 3 mL of a 0.1 M sodium phosphate buffer (pH 7.4) at a final concentration of 5 μM, and the enzymatic reaction was performed at 37° C. The values of fluorescence intensity observed with each amount of the enzyme 9 minutes after the addition of the enzyme were plotted. The excitation wavelength was 501 nm, and the fluorescence emission wavelength was 524 nm.
# [2] = test system: SHIN3 cells derived from human ovarian cancer (peritoneal dissemination model); test: Live imaging of cancer model mouse using fluorescent endoscope; assay type: in vivo; settings: 300 μL of 50 μM in PBS sprayed from endoscope tip
# Source text: (§1) Disseminated metastasis of ovarian cancer to the peritoneum is known as a generally-occurring lethal complication of ovarian cancer. Such metastasis to the peritoneum begins to occur at a relatively early stage of ovarian cancer, the tumor invades the […], and falls into the abdominal cavity, and as a result, the tumor metastasizes to the other organs in the abdominal cavity as seeds are scattered (dissemination metastasis). In order to experimentally reproduce this phenomenon, SHIN3 cells of ovarian cancer origin were intraperitoneally administered to athymic mice to prepare a peritoneal dissemination model (Neoplasia, 8, pp. 607-612, 2006).
# The SHIN3 cells derived from human ovarian cancer were cultured at 37° C. in the RPMI 1640 medium containing 10% FBS, 100 U/mL of penicillin, and 100 μg/mL of streptomycin under 5% CO2. After the cells reached subconfluent, the cells were washed with PBS (phosphate buffered saline), and removed with Trypsin-EDTA so that individual cells were separated. The treated cells were centrifuged (100×g, 4° C., 3 minutes), and after the supernatant was discarded, ice-cooled PBS was added to the cells to suspend them at a cell density of 1×10^6 cells/300 μL. […]
# A small hole was formed in the abdominal part of the peritoneal dissemination model mouse under isoflurane anesthesia, a fluorescence endoscope was inserted into the abdominal cavity through the hole, and 300 μL of a solution of Compound (2) (γGlu-RhoHM) in PBS (50 μM) was sprayed in a misty state from the tip of the endoscope. Then, an excitation light of 450 to 480 nm was irradiated, and fluorescence of 516 to 556 nm was observed over time to obtain fluorescence endoscope movies and images. In each of the results obtained immediately after the spray (0 sec), and 30 seconds, 60 seconds, 90 seconds, and 10 minutes after the spray, a white light image is shown on the left side, and a fluorescence image is shown on the right side. The “white light image” is an image obtained in a usual endoscope mode, not a fluorescence mode for comparison.
# [3] = test system: SHIN3 cells derived from human ovarian cancer (peritoneal dissemination model); test: Fluorescence imaging using cancer model mouse (peritoneal dissemination model); assay type: in vivo, athymic mice; settings: 300 μL of 50 μM in PBS i.p., 30 minutes after administration, from outside the body and after abdominal section
# Source text: as §1, with “2006). […]” for “2006).”
# A solution of Compound (2) (γGlu-RhoHM) in PBS (50 μM) in a volume of 300 μL was intraperitoneally (i.p.) administered to the peritoneal dissemination model mice. Fluorescence imaging was performed by irradiating an excitation light of 450 to 480 nm from the outside of the mouse body under anesthesia 30 minutes after the i.p. administration, and observing fluorescence of 516 to 556 nm. Further, after the mice were sacrificed with CO2 gas, and exsanguination was performed, abdominal section was performed with surgery appliances for small animals to expose the abdominal cavity, an excitation light of 445 to 490 nm was irradiated, and fluorescence was measured at every 10 nm from 520 to 800 nm to obtain fluorescence spectrum images. […]
# LAP = test: Enzyme specificity: reaction with LAP; assay type: biochemical
# Description: Enzyme specificity of Compound (2) was examined. The DMSO solution (5 mM) in a volume of 3 μL was dissolved in 3 mL of a 0.1 M sodium phosphate buffer (pH 7.4) at a final concentration of 5 μM, and LAP (0.4 U) was added to the solution to perform the enzymatic reaction at 37° C.
compound,measurement,setting,value
"Nc1ccc2c(c1)Oc1cc(NC(=O)CC[C@H](N)C(=O)O)ccc1C21OCc2ccccc21 (some centres unmarked) [Compound (2), γGlu-RhoHM]",change of absorption and fluorescence intensity after reaction with GGT,"[1]; 0.1 M sodium phosphate buffer pH 7.4, GGT 1.1 U, 37° C.",remarkable elevations of absorption and fluorescence intensity were immediately observed
same,fluorescence intensity versus added GGT amount,"[1]; pH 7.4, 37° C., 9 minutes after addition of enzyme, emission 524 nm",linear increase of fluorescence intensity in an added GGT amount-dependent manner
same,time to specific fluorescence emission of the cancerous part,[2],specifically emit fluorescence within several minutes
same,cancerous tissue fluorescence images 10 minutes after spray,[2]; 10 minutes after the spray,cancerous tissues were clearly imaged
same,cancerous tissue fluorescence images from immediately after spray to 90 seconds,"[2]; excitation 450 to 480 nm, fluorescence 516 to 556 nm",cancerous tissue images became clearer
same,fluorescence of cancer sites in imaging,[3],strong green fluorescence was observed in a cancer site-specific manner
same,increase of fluorescence intensity after reaction with LAP,"LAP; 5 μM compound, 0.1 M sodium phosphate buffer pH 7.4, LAP 0.4 U, 37° C.",increase of fluorescence intensity was not observed
same,enzyme specificity (GGT versus LAP),LAP; conclusion from the reactions with LAP (Example 3) and GGT (Example 2),specifically detected GGT
